Assay results from US8124629B2, “Naphthylacetic acids” (Hoffmann-La Roche Inc., priority 2008, dated 2012).

Legend:
human CRTH2 [1] = target: T1, human CRTH2 (Homo sapiens, UniProt Q9Y5Y4); test: Calcium Flux Assay Using Fluorometric Imaging Plate Reader (FLIPR); format: cell-based; parameters: expressed in transfected cells; host or cells: CHO-K1 (previously transfected with G-alpha 16); conditions: CHO-K1 cells with G-alpha 16 and human CRTH2; inhibition of ligand (DK-PGD2) induced Ca2+ flux; read-out: FLIPR assay IC50 (exceptions, greater than 3)
T1 sequence (Q9Y5Y4 1-395): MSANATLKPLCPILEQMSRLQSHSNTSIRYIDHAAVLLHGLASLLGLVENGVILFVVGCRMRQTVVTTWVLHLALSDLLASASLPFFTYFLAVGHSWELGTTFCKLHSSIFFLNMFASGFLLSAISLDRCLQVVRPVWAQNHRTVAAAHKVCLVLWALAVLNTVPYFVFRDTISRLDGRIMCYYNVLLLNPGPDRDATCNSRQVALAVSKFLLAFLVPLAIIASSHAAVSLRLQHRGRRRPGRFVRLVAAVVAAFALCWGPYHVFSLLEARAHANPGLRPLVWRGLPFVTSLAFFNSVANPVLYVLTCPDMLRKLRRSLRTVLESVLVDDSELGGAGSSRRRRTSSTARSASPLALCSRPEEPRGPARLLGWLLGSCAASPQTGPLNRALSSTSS
Procedure: CHO-K1 cells previously transfected with G-alpha 16 were subsequently transfected with the human CRTH2 receptor and the neomycin resistance gene. Following selection in 800 μg/mL G418 (geneticin), individual clones were assayed for their receptor expression based on staining with an anti human CRTH2 IgG, followed by assaying for their response to 13,14-dihydro-15-keto Prostaglandin D2 (DK-PDG2) (ligand) in the Ca^2+Flux assay. Positive clones were then cloned by limiting dilution cloning. The transfected cells were cultured in Ham's F-12 medium supplemented with 10% fetal bovine serum, 2 mM glutamine , 100 U/mL penicillin/100 μg/mL streptomycin, 200 μg/mL hygromycin B, and 800 μg/mL G418 (geneticin). Cells were harvested with trypsin-EDTA (trypsin-ethylenediaminetetraacetic acid) and counted using ViaCount® reagent (from Guava Technologies, Inc. which contains two DNA-binding dyes that enable the reagent user to distinguish between viable and non-viable cells). The cell suspension volume was adjusted to 2.5×10^5 cells /mL with complete growth media. Aliquots of 50 μL were dispensed into BD Falcon™ 384 well black/clear microplates (from BD Biosciences, a division of Becton, Dickinson and Company) and the microplates were placed in a 37° C. CO2 incubator overnight. The following day, the microplates were used in the assay.
Loading Buffer containing dye (from the FLIPR® Calcium 3 Assay Kit from Molecular Devices, a division of MDS Analytical Technologies and MDS Inc.) was prepared by dissolving the contents of one bottle into 200 mL Hank's Balanced Salt Solution containing 20 mM HEPES (4-(2-hydroxyethyl)-1-piperazineethanesulfonic acid) and 2.5 mM probenecid. Growth media was removed from the cell plates and 25 μL of Hank's Balanced Salt Solution (HBSS) containing 20 mM HEPES, 0.05% BSA and 2.5 mM probenecid was added to each well followed by 25 μL of diluted dye using a Multidrop dispenser. The plates were then incubated for 1 hour at 37° C.
During the incubation, test compound plates were prepared by adding 90 μL of HBSS/20 mM HEPES/0.005% BSA buffer to the 2 μL of serial diluted compounds. To prepare serial diluted compounds, 20 mM stocks of compounds were dissolved in 100% DMSO. The compound dilution plate was set up as follows: well #1 received 5 μL of compound plus 10 μL of DMSO. Wells 2-10 received 10 μL of DMSO. 5 μL was mixed and transferred from well #1 into well #2. 1:3 serial dilutions were continued out 10 steps. 2 μL of diluted compound was transferred into duplicate wells of a 384 well “assay plate” and then 90 μL of buffer was added.
After incubation, both the cell and “assay plate” plates were brought to the fluorometric imaging plate reader (FLIPR®) and 20 μL of the diluted compounds were transferred to the cell plates by the FLIPR®. Plates were then incubated for 1 hour at room temperature. After the 1 hour incubation, plates were returned to the FLIPR® and 20 μL of 4.5× concentrated ligand was added to the cell plates. During the assay, fluorescence readings were taken simultaneously from all 384 wells of the cell plate every 1.5 seconds. Five readings were taken to establish a stable baseline, then 20 μL of sample was rapidly (30 μL/sec) and simultaneously added to each well of the cell plate. The fluorescence was continuously monitored before, during and after sample addition for a total elapsed time of 100 seconds. Responses (increase in peak fluorescence) in each well following agonist addition were determined. The initial fluorescence reading from each well, prior to ligand stimulation, was used as a zero baseline value for the data from that well. The responses were expressed as % inhibition of the buffer control. […]

human CRTH2 [2] = target: T1, human CRTH2; test: Human CRTH2 Receptor Binding Assay (whole cell, [3H]ramatroban); parameters: expressed in transfected cells; host or cells: CHO-K1; conditions: CHO-K1 cells expressing human CRTH2 and G-alpha16; 20 nM [3H]ramatroban; 1 hour, room temperature
Outline: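 CHO-K1 cells stably co-expressing human CRTH2 and G-alpha16, 1.5×10^5 cells/reaction, bound 1 h at room temperature with 20 nM [3H]ramatroban in PBS, 10 mM MgCl2, 0.06% BSA. Filter-bound radioactivity counted; non-specific binding defined with 10 μM 15(R)-15-methyl PGD2. IC50 from 4-parameter fit of 7-concentration inhibition data.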

[3] = test system: DK-PGD2-induced IL-13 production in Th2 cells; test: DK-PGD2-Induced IL-13 Production Assay in Th2 Cells; format: cell-based; conditions: human Th2 cells; 500 nM DK-PGD2; 4 hrs at 37° C.; IL-13 by ELISA; read-out: IC50 for inhibition of IL-13 production
Procedure: Inhibition of 13,14-dihydro-15-keto Prostaglandin D2 (DK-PGD2)-induced IL-13 production in T helper type 2 (Th2) cells was applied to evaluate compound cellular potency.
Cultures of Th2 cells were established from blood of healthy human volunteers according to the following procedure. Peripheral blood mononuclear cells (PBMC) were first isolated from 50 mL of fresh blood by Ficoll-Hypaque density gradient centrifugation, followed by CD4^+cell purification using a CD4^+T Cell Isolation Kit II (from Miltenyi Biotec Inc.). The CD4^+T cells were then differentiated to Th2 cells by culturing the cells in X-VIVO 15® medium (from Cambrex BioScience Walkersville Inc.) containing 10% human AB serum (serum of blood type AB from Invitrogen Corporation), 50 U/mL of recombinant human interleukin-2 (rhIL-2) (from PeproTech Inc.) and 100 ng/mL of recombinant human interleukin-4 (rhIL-4) (from PeproTech Inc.) for 7 days. The Th2 cells were isolated using a CD294 (CRTH2) MicroBead Kit (from Miltenyi Biotec Inc.) and amplified in X-VIVO 15® medium containing 10% human AB serum and 50 U/mL of rhIL-2 for 2 to 5 weeks. In general, 70% to 80% of the Th2 cells used in the assay are CRTH2-positive when analyzed by fluorescence-activated cell sorting using the BM16 antibody (as previously described) conjugated to phycoerythrin (PE).
The spontaneous production of IL-13 by Th2 cells was determined in the absence of DK-PGD2 stimulation and the value was subtracted from that in the presence of each compound for percent inhibition and IC50 calculations.
The percent inhibition of interleukin 13 (IL-13) production for a compound at various concentrations was calculated according to the following formula, [1-(IL-13 production in the presence of compound)/(IL-13 production in the presence of 0.15% DMSO)]×100. […]

## NS(=O)(=O)c1ccc(C(=O)c2cc(CC(=O)O)cc3ccccc23)cc1 [Example 1-3, [4-(4-Sulfamoyl-benzoyl)-naphthalen-2-yl]-acetic acid]
Human CRTH2 [1]
  IC50: > 3000 nM
Human CRTH2 [2]
  IC50: 336 nM

## CC(C(=O)O)c1cc(C(=O)c2ccc(S(C)(=O)=O)cc2)c2cc(F)ccc2c1 (stereo not drawn) [Example 7-1, 2-[6-Fluoro-4-(4-methanesulfonyl-benzoyl)-naphthalen-2-yl]-propionic acid]
Human CRTH2 [1]
  IC50: > 3000 nM
Human CRTH2 [2]
  IC50: 53.3 nM

## Cc1ccc2cc(CC(=O)O)cc(C(O)c3ccc(S(C)(=O)=O)cc3)c2c1 (stereo not drawn) [Example 16-2, {4-[Hydroxy-(4-methanesulfonyl-phenyl)-methyl]-6-methyl-naphthalen-2-yl}-acetic acid]
[3]
  IC50: 5750 nM
Human CRTH2 [2]
  IC50: 386 nM

## COc1ccc2c(C(=O)c3ccc(S(C)(=O)=O)cc3)cc(CC(=O)O)cc2c1 [Example 2-9, [4-(4-Methanesulfonyl-benzoyl)-7-methoxy-naphthalen-2-yl]-acetic acid]
Human CRTH2 [1]
  IC50: > 3000 nM
Human CRTH2 [2]
  IC50: 199 nM

## CS(=O)(=O)c1cccc(C(=O)c2cc(CC(=O)O)cc3ccccc23)c1 [Example 2-11, [4-(3-Methanesulfonyl-benzoyl)-naphthalen-2-yl]-acetic acid]
Human CRTH2 [1]
  IC50: > 3000 nM
Human CRTH2 [2]
  IC50: 135 nM

## NS(=O)(=O)c1ccc(C(=O)c2cc(CC(=O)O)cc3ccc(F)cc23)cc1 [Example 1-2, [6-Fluoro-4-(4-sulfamoyl-benzoyl)-naphthalen-2-yl]-acetic acid]
Human CRTH2 [1]
  IC50: > 3000 nM
Human CRTH2 [2]
  IC50: 40.2 nM

## CS(=O)(=O)c1ccc(Cc2cc(CC(=O)O)cc3cc(C(F)(F)F)ccc23)cc1 [Example 8-3, [4-(4-Methanesulfonyl-benzyl)-7-trifluoromethyl-naphthalen-2-yl]-acetic acid]
[3]
  IC50: > 10000 nM
Human CRTH2 [2]
  IC50: 162 nM

## CS(=O)(=O)c1ccc(C(=O)c2cc(CC(=O)O)cc3cc4c(cc23)OCO4)cc1 [Example 2-7, [8-(4-Methanesulfonyl-benzoyl)-naphtho[2,3-d][1,3]dioxol-6-yl]-acetic acid]
Human CRTH2 [1]
  IC50: > 3000 nM
Human CRTH2 [2]
  IC50: 264 nM

## CS(=O)(=O)c1cccc(C(=O)c2cc(CC(=O)O)cc3cc4c(cc23)OCO4)c1 [Example 2-12, [8-(3-Methanesulfonyl-benzoyl)-naphtho[2,3-d][1,3]dioxol-6-yl]-acetic acid]
Human CRTH2 [1]
  IC50: > 3000 nM
Human CRTH2 [2]
  IC50: 152 nM

## CS(=O)(=O)c1cccc(C(=O)c2cc(CC(=O)O)cc3ccc(Cl)cc23)c1 [Example 2-30, [6-Chloro-4-(3-methanesulfonyl-benzoyl)-naphthalen-2-yl]-acetic acid]
Human CRTH2 [1]
  IC50: > 3000 nM
Human CRTH2 [2]
  IC50: 82.5 nM

## Cc1c(CC(=O)O)cc2ccc(F)cc2c1Cc1ccc(S(=O)(=O)C(F)(F)F)cc1 [Example 11-1, [6-Fluoro-3-methyl-4-(4-trifluoromethanesulfonyl-benzyl)-naphthalen-2-yl]-acetic acid]
other
  melting point: 200 to 201 °C
Human CRTH2 [2]
  IC50: 3 nM

## CS(=O)(=O)c1ccc(C(=O)c2cc(CC(=O)O)cc3ccc(C(F)(F)F)cc23)cc1 [Example 2-29, [4-(4-Methanesulfonyl-benzoyl)-6-trifluoromethyl-naphthalen-2-yl]-acetic acid]
[3]
  IC50: 3000 nM
Human CRTH2 [2]
  IC50: 7.5 nM

## Cc1c(CC(=O)O)cc2ccc(F)cc2c1Cc1ccc(SCc2ccccc2)cc1 [Example 10-11, [4-(4-Benzylsulfanyl-benzyl)-6-fluoro-3-methyl-naphthalen-2-yl]-acetic acid]
Human CRTH2 [2]
  IC50: 3.5 nM

## CS(=O)(=O)c1ccc(C(=O)c2cc(CC(=O)O)cc3cc(C(F)(F)F)ccc23)cc1 [Example 2-32, [4-(4-Methanesulfonyl-benzoyl)-7-trifluoromethyl-naphthalen-2-yl]-acetic acid]
Human CRTH2 [2]
  IC50: 272 nM

## Cc1c(CC(=O)O)cc2ccc(F)cc2c1Cc1ccc(-c2nnnn2C)cc1 [Example 10-10, {6-Fluoro-3-methyl-4-[4-(1-methyl-1H-tetrazol-5-yl)-benzyl]-naphthalen-2-yl}-acetic acid]
Human CRTH2 [2]
  IC50: 32.5 nM
